Where two headings read alike, the source gives them in different places.
Tests used:
[1] = target: receptor tyrosine kinase c-Met (Homo sapiens, UniProt P08581); assay: In vitro c-Met kinase inhibitory activity; assay type: biochemical; conditions: two values per compound; for inhibition at 0.001 µM / inhibition at 0.01 µM / inhibition at 0.1 µM: read-out: c-Met Inhibitory rate (%)
Source text: Experimental Example 3: Study of In Vitro c-Met Kinase Inhibitory Activity
Since the screening results of 369 kinase profiles of compound DC621044 has shown that the compound has a certain inhibitory activity on c-Met. We further screened some compounds for their inhibitory activity on c-Met kinase.

[2] = target: T1, receptor tyrosine kinase AXL (Homo sapiens, UniProt P30530); assay: Enzyme activity of receptor tyrosine kinase AXL (ELISA); assay type: biochemical; conditions: for inhibition at 0.001 µM: 1 nM; for inhibition at 0.001 µM / inhibition at 0.01 µM / inhibition at 0.1 µM: read-out: AXL activity Inhibitory rate(%); for inhibition at 0.01 µM: 10 nM; for inhibition at 0.1 µM: 100 nM
T1 construct: 50 μL of AXL kinase domain recombinant protein diluted in reaction buffer was added to start the reaction; made in house; host or cells: insect cells (baculovirus expression system)
T1 sequence (P30530 536-807 limits assumed): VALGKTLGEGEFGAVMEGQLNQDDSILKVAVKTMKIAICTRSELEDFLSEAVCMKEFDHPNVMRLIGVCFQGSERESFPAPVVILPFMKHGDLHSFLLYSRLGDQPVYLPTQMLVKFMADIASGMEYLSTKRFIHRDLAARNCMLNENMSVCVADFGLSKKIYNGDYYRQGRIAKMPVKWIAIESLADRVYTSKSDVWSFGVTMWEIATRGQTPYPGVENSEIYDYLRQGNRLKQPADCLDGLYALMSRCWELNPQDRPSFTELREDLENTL
Description: Detection method: Enzyme-linked immunosorbent assay (ELISA)
Tested receptor tyrosine kinase: AXL
The full-wavelength microplate reader for experiment reading was a product of Molecular Device, model: SpectraMax 190; the experiment water was distilled water produced by Sinopharm Group.
Compound preparation: The compounds were centrifuged at 12,000 g for 5 min, and DMSO was added to prepare a 10^−2M stock solution, vortexed evenly and sonicated for 10 min for use, and stored at −40° C. During the test, the compound was diluted from the stock solution to 100 times the tested concentration with DMSO (the DMSO concentration in the system was 1%).
1. […] Discard the liquid from the well. The plate was washed and washed three times with T-PBS (0.1% Tween-20 in potassium-free PBS, 200 μL/well) for 5 minutes each time.
2. 49 μL of ATP solution diluted with reaction buffer (50 mM HEPES pH 7.4, 50 mM MgCl2, 0.5 mM MnCl2, 0.2 mM Na3VO4, 1 mM DTT) was added to each well, and […] of the tested compound was added to each well, and then 50 μL of AXL kinase domain recombinant protein diluted in reaction buffer was added to start the reaction. Two control wells without ATP were added in each experiment. (100 rpm) Reacted in 37° C. shaker for 1 hour. Discard the liquid from the well, and the plate was washed with T-PBS for three times.
3. […] Discard the liquid from the well, and the plate was washed with T-PBS for three times.
4. The horseradish peroxidase-labeled goat anti-mouse second antibody dilution (antibody diluted 1:2000 with BSA 5 mg/mL in T-PBS), 100 μL/well, and reacted in 37° C. shaker for 0.5 hours. Discard the liquid from the well, and the plate was washed with T-PBS for three times.
6. The reaction was quenched with 50 μL/well 2M […], and read at 490 nm using a tunable microplate reader VERSAmax.
The IC50 values were obtained by four-parameter regression analysis using the software supplied with the microplate reader.

BaF3/TEL-AXL cells = assay: Proliferation of BaF3/TEL-AXL cells; assay type: cell-based; conditions: for inhibition at 0.001 µM / inhibition at 0.01 µM / inhibition at 0.1 µM: BaF3/TEL-AXL
Source text: Experimental Example 4: Effect of the Compound on the Proliferation Effect of BaF3/TEL-AXL Cells
Based on the above-mentioned enzyme activity research results, we further explored the effect of the compound on cell proliferation mediated by receptor tyrosine kinase AXL.

[3] = 1 nM, two values per compound, 0.001 µM
[4] = 10 nM, two values per compound, 0.01 µM
[5] = 100 nM, two values per compound, 0.1 µM
[6] = 1 nM, two values per compound, read-out: BaF3/TEL-AXL proliferation Inhibitory rate (%)
[7] = 10 nM, two values per compound, read-out: BaF3/TEL-AXL proliferation Inhibitory rate (%)
[8] = 100 nM, two values per compound, read-out: BaF3/TEL-AXL proliferation Inhibitory rate (%)
[9] = concentration of 1 nM, read-out: inhibited the proliferation of BaF3/TEL-AXL cells

receptor tyrosine kinase c-Met, sequence (P08581 25-1390): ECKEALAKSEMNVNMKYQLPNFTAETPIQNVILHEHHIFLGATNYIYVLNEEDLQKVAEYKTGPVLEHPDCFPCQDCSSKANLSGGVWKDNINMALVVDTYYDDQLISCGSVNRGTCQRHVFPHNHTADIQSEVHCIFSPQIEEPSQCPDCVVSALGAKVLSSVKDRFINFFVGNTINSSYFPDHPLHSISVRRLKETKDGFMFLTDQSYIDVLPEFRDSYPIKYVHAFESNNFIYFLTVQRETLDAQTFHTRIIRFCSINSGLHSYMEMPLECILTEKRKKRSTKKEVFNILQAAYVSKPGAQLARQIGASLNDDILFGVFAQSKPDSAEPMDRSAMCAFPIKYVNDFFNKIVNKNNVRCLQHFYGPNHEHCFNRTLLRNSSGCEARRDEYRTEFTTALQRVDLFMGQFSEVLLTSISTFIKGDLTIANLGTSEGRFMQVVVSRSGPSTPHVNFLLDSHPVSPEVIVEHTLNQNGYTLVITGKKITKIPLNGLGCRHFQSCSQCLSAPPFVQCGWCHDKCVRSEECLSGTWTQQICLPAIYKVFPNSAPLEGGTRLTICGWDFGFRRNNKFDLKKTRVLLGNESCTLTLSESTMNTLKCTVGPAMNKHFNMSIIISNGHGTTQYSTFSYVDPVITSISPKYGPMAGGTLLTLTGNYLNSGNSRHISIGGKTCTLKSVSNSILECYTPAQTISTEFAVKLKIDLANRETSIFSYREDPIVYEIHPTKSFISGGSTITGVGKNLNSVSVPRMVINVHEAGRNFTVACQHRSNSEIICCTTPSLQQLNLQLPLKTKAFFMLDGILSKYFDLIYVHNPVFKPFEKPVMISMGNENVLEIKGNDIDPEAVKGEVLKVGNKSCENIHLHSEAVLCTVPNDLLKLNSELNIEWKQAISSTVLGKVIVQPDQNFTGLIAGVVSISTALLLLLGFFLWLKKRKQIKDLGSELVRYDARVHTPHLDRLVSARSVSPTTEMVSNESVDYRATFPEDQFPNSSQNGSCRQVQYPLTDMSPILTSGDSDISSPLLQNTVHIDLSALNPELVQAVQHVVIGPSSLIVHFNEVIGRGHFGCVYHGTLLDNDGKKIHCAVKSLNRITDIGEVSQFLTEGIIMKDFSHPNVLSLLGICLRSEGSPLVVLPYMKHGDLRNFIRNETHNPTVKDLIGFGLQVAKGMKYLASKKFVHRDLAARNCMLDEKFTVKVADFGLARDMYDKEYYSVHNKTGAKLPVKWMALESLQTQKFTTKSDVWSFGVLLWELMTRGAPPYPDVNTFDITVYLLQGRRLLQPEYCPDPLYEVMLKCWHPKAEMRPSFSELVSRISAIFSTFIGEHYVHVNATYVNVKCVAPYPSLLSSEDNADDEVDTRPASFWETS

Structure (SMILES) | c-Met Inhibitory rate (%) ([1]; 1 nM, 0.001 µM) | inhibition at 0.001 µM ([1]; 1 nM) [%] | c-Met Inhibitory rate (%) ([1]; 10 nM, 0.01 µM) | inhibition at 0.01 µM ([1]; 10 nM) [%] | c-Met Inhibitory rate (%) ([1]; 100 nM, 0.1 µM) | inhibition at 0.1 µM ([1]; 100 nM) [%] | IC50 [2] [nM] | inhibition at 0.001 µM [2] [%] | inhibition at 0.01 µM [2] [%] | inhibition at 0.1 µM [2] [%] | BaF3/TEL-AXL proliferation Inhibitory rate (%) (BaF3/TEL-AXL cells; [3]) | BaF3/TEL-AXL proliferation Inhibitory rate (%) (BaF3/TEL-AXL cells; [4]) | BaF3/TEL-AXL proliferation Inhibitory rate (%) (BaF3/TEL-AXL cells; [5]) | inhibition at 0.001 µM (BaF3/TEL-AXL cells; [6]) [%] | inhibition at 0.01 µM (BaF3/TEL-AXL cells; [7]) [%] | inhibition at 0.1 µM (BaF3/TEL-AXL cells; [8]) [%] | inhibition at 0.001 µM (BaF3/TEL-AXL cells; [9]) [%]
COCCOc1cc2ncnc(Oc3ccc(NC(=O)c4c5n(n(-c6cc(F)ccc6F)c4=O)CCCC5)cc3F)c2cc1OCCOC [DC621024, 1-(2,5-difluorophenyl)-N-(4-((6,7-bis(2-methoxyethoxy)quinazolin-4-yl)oxy)-3-fluorophenyl)-2-oxo-1,2,4,5,6,7-hexahydropyrazolo[1,5-a]pyridine-3-formamide] | 53.5 | 40.5 | 80.5 | 66.8 | 100 | 99.4 | 8.7 ± 1 | 29.9 | 72.5 | 100 | 75.0 | 80.5 | 81.3 | 79.8 | 81 | 85 | > 70
COCCOc1cc2ncnc(Oc3ccc(NC(=O)c4c5n(n(-c6ccccc6F)c4=O)CCCC5)c(F)c3)c2cc1OCCOC [DC621057, N-(4-((6,7-bis(2-methoxyethoxy)quinazolin-4-yl)oxy)-2-fluorophenyl)-1-(2-fluorophenyl)-2-oxo-1,2,4,5,6,7-hexahydropyrazolo[1,5-a]pyridine-3-formamide] | 51.3 | 34 | 64.0 | 55.2 | 95.9 | 94.6 | – | 16 | 55.1 | 91.9 | 76.6 | – | 86.0 | 69.5 | 83.2 | 87.5 | –
COCCOc1cc2ncnc(Oc3ccc(NC(=O)c4c5n(n(-c6ccccc6)c4=O)CCCC5)c(F)c3)c2cc1OCCOC [DC621051, N-(4-((6,7-bis(2-methoxyethoxy)quinazolin-4-yl)oxy)-2-fluorophenyl)-2-oxo-1-phenyl-1,2,4,5,6,7-hexahydropyrazolo[1,5-a]pyridine-3-formamide] | 55.2 | 39.5 | 75.9 | 62.4 | 97.5 | 93.9 | – | 8.2 | 54.2 | 100 | 82.9 | 85.9 | 86.6 | 84.7 | 85.8 | 86.7 | > 70
O=C(Nc1ccc(Oc2ncnc3cc4c(cc23)OCCOCCOCCO4)c(F)c1)c1c2n(n(-c3cc(F)ccc3F)c1=O)CCCC2 [DC621063, 1-(2,5-difluorophenyl)-N-(3-fluoro-4-((7,8,10,11,13,14-hexahydro-[1,4,7,10]tetraoxacyclododecane[2,3-g]quinazolin-4-yl)oxy)phenyl)-2-oxo-1,2,4,5,6,7-hexahydropyrazolo[1,5-a]pyridine-3-formamide] | 32.4 | 17.7 | 56.2 | 46.4 | 99.2 | 94.8 | – | 11.5 | 60.5 | 91.8 | 61.0 | 66.0 | 78.2 | 47.8 | 67.2 | 82.3 | –

Source: patent US12497394B2, “Fused-cyclic pyrazolone formamide compound and preparation method therefor, pharmaceutical composition and use thereof” (SHANGHAI INSTITUTE OF MATERIA MEDICA, CHINESE ACADEMY OF …, priority 2018, dated 2025)
